Reference: patent US9012459B2, “Monohydrate crystalline form of 3-(5-(4-(3-fluoropropyl)-piperazin-1-yl)benzimidazol-2-yl)-1-azaazulen-2-one, preparation, and pharmaceutical composition thereof” (Industrial Technology Research Institute, priority 2012, dated 2015)
Read-outs that look alike come from different tables or passages of the source.

Key:
[1] = hygroscopicity test (weight gain); type: physicochemical; conditions: for Weight gain (%): 1 day, temperature 22.5/21.8 ° C., relative humidity 70/71 %; for hygroscopicity: Hydroscopicity test
Method: The monohydrate form of Formula I (300 mg) was dissolved at room temperature in the mix solution of CH2Cl2 (50 mL) and methanol (50 mL). Na2SO4 (10 g) was then added into the solution to absorb water with stir for 2 hours.

[2] = solubility in different pH buffer solutions (HPLC); type: physicochemical; conditions: buffer solution, thermodynamic from solid, read-out: Concentration (solubility)
[3] = stability test (XRPD and HPLC over time); type: physicochemical; conditions: about 25-30° C. and 40%-45% RH; after preparation, one, two and four months
Method: An appropriate amount of samples were prepared according to the method of Example 1. A XPRD analysis and a HPLC analysis were performed, under the environment of about 25-30° C. and 40%-45% RH, after the preparation of the samples (FIGS. 7a and 8a), and after one month (FIGS. 7b and 8b), two months (FIGS. 7c and 8c), and four months (FIGS. 7d and 8d) respectively from the time of preparation, and the results were examined to observe their differences over time.

[4] = stability examination by slurry test (XRPD); type: physicochemical; conditions: stirred at 25° C. for 3 days in ethyl acetate, heptanes or isopropanol
Method: 1. Formula I-EA: the monohydrate form of Formula I (57 mg) and Ethyl acetate (1 mL) was provided.
2. Formula I-Heptane: the monohydrate form of Formula I (51 mg) and Heptanes (1 mL) was provided: […]
3. Formula I-IPA: the monohydrate form of Formula I (53 mg) and 1 mL of Isopropanol (1 mL) was provided.
The solutions provided above were stirred at 25° C. for 3 days and then a centrifugation was performed to collect the solid with centrifuge in each. Each of the collected solids was dried and analyzed using XPRD. […] This is a pre-test for the subsequent formulation, which is aimed to confirm that the monohydrate form wouldn't change with the incorporation of solvents. Therefore, the solvents used herein may not be the same as those crystallized solvents used in the embodiments.

[5] = pharmacokinetics profile and bioavailability, PO dosing; type: in vivo; conditions: PO 30 mg/kg, male SD rat; monohydrate in capsule and in 0.5% methyl cellulose suspension, sample #4 in 0.5% methyl cellulose
Method: The pharmacokinetics profile and the bioavailability were tested by a PO (per os) dosing with 30 mg/kg of sample of Example 1 (monohydrate), good in capsule (Tropac, 9el) and in bottle (0.5% methyl cellulose suspension) for male SD rat; and also a PO dosing with 30 mg/kg of sample #4 (mixed crystalline form) in 0.5% methyl cellulose for male SD rat as a treatment control. With the result from the above testing, the preferable PO dosing for first in human model was determined.
Generally, the PK profile of the crystalline form with good crystallinity and stability would be worse than that of amorphous form and complex form.
The terms used in FIG. 10 were listed as follows, PO (per os) represents taken by mouth; Cmax (ng/mL) represents the peak plasma concentration of a drug after administration; Tmax (hr) represents the time to reach Cmax; T1/2 (hr) represents elimination half-life, which represents the time required for the concentration of the drug to reach half of its original value; and AUC (hr*ng/mL) [area under the curve] represents the integral of the concentration-time curve (after a single dose or in steady state), and the bioavailability could be deducted from AUC values.

| Structure (SMILES) | Weight gain (%) [1] | hygroscopicity [1] | solubility at 24 h ([2]; pH 1.2, simulated gastric fluid, buffer pH1.2, 300 rpm) | solubility at 24 h ([2]; pH 5, aqueous buffer, buffer pH5, 300 rpm) | solubility at 24 h ([2]; pH 6.8, aqueous buffer, buffer pH6.8, 300 rpm) | solubility at 24 h ([2]; pH 7.4, aqueous buffer, buffer pH7.4, 300 rpm) | stability (XRPD and HPLC differences over time) [3] | crystalline form stability in slurry (XRPD vs original form) [4] | PK profile (Cmax, Tmax, T1/2, AUC) compared between the 3 treatments [5] |
| --- | --- | --- | --- | --- | --- | --- | --- | --- | --- |
| O=c1[nH]c2cccccc-2c1-c1nc2ccc(N3CCN(CCCF)CC3)cc2[nH]1 [anhydrate form, 3-(5-(4-(3-fluoropropyl)piperazin-1-yl)benzimidazol-2-yl)-1-azaazulen-2-one] | 3.81% | 3.81% | – | – | – | – | – | – | – |
| O=c1[nH]c2cccccc-2c1-c1nc2ccc(N3CCN(CCCF)CC3)cc2[nH]1 [monohydrate form of Formula I, 3-(5-(4-(3-fluoropropyl)piperazin-1-yl)benzimidazol-2-yl)-1-azaazulen-2-one] | 1.57% | 1.57% | 26.3 mg/mL | 0.263 mg/mL | 0.0037 mg/mL | 0.0024 mg/mL | stable and substantially the same over four months | stable | no statistically significant difference |
